Laboratory results: ChEMBL document CHEMBL1152443, “Three adducts of butenolide and apigenin glycoside from the leaves of Machilus japonica” (J Nat Prod, 2009)
The source made the active and inactive calls. No cut-off for these calls is given here.

Legend:
[1] = test system: Geobacillus stearothermophilus; test: Inhibition of Bacillus stearothermophilus alpha-glucosidase type IV at 100ug/mL
[2] = test system: Geobacillus stearothermophilus; test: Inhibition of Bacillus stearothermophilus alpha-glucosidase type IV at 10ug/mL
[3] = Inhibition of Bacillus stearothermophilus alpha-glucosidase type IV; set-up: species or system Geobacillus stearothermophilus
PC-3 = test: Cytotoxicity against human PC3 cells; assay type: functional, cell-based

SMILES	inhibition [1]	Activity [2]	IC50 [3]	IC50 (PC-3)
CCCCCCCC[C@@H]1c2c(c([C@@H]3O[C@H](CO)[C@@H](O)[C@H](O)[C@H]3O[C@@H]3O[C@@H](C)[C@H](O)[C@@H](O)[C@H]3O)c(O)c3c(=O)cc(-c4ccc(O)cc4)oc23)OO[C@@]12C(=O)O[C@H](C)C2=O	93.7%	inactive	–	–
C[C@H]1O[C@H](O[C@H]2[C@H](O)[C@@H](O)[C@@H](O[C@H]3[C@H](O)[C@@H](O)C(O)O[C@@H]3CO)O[C@@H]2CO)[C@H](O)[C@@H](O)[C@@H]1N[C@H]1C=C(CO)[C@@H](O)[C@H](O)[C@H]1O (stereo partly drawn) [ACARBOSE]	–	–	0.033 µM	–
O=c1cc(-c2ccc(O[C@@H]3O[C@H](CO)[C@@H](O)[C@H](O)[C@H]3O)cc2)oc2cc(O)cc(O)c12	18.7%	inactive	–	–
CCCCCCCCCC[C@@H]1c2c(cc(O)c3c(=O)cc(-c4ccc(O[C@@H]5O[C@H](CO)[C@@H](O)[C@H](O)[C@H]5O)cc4)oc23)OO[C@@]12C(=O)O[C@H](C)C2=O	64.7%	inactive	–	–
CCCCCCCCCC[C@@H]1c2c(c([C@@H]3O[C@H](CO)[C@@H](O)[C@H](O)[C@H]3O[C@@H]3O[C@@H](C)[C@H](O)[C@@H](O)[C@H]3O)c(O)c3c(=O)cc(-c4ccc(O)cc4)oc23)OO[C@@]12C(=O)O[C@H](C)C2=O [APIGENOSYLIDE A]	–	–	–	> 30 µg/mL
